Each structure is given as a SMILES string. pIC50: −log10 of the molar value. Bounds are passed on as bounds.

In the assay the test system is MOLT-4 cells. In words: MOLT-4 Cell Proliferation Assay (CellTiter-Glo). It counts as cell-based. As to conditions: Homo sapiens, 72 h, read-out: MOLT-4 CTG IC50. The method, then: Cell proliferation was measured using the CellTiter-Glo® Luminescent Cell Viability Assay. The assay involved the addition of a single reagent (CellTiter-Glo® Reagent) directly to cells cultured in serum-supplemented medium. MOLT-4 cells (ATCC, CRL-1582) were cultured according to ATCC recommendations and were seeded at 50,000 cells per well.
Each compound evaluated was prepared as a DMSO stock solution (10 mM). Compounds were tested in duplicate on each plate, with a 10-point serial dilution curve (1:3 dilution). The highest compound concentration was 10 μM (final), with a 0.1% final DMSO concentration. Plates were then incubated at 37° C., 5% CO2 for 72 h, cell plates were equilibrated at rt for approximately 30 mins. An equi-volume amount of CellTiter-Glo® Reagent (100 μL) was added to each well. Plates were mixed for 2 mins on an orbital shaker to induce cell lysis and then incubated at rt for 10 mins to stabilize the luminescent signal. Luminescence was recorded using a Envision plate reader according to CellTiter-Glo protocol. IC50 of each compound was calculated using GraphPad Prism by nonlinear regression analysis.

As usually defined, the pIC50 is the negative decadic logarithm of the IC50, by convention in mol/L. `CC1(C)CCC(CN2CCN(c3ccc(C(=O)NS(=O)(=O)c4ccc(N[C@H](CCN5CCN(CCCC#Cc6cccc7c6CN(C6CCC(=O)NC6=O)C7=O)CC5)CSc5ccccc5)c(S(=O)(=O)C(F)(F)F)c4)cc3)CC2)=C(C23CC(C(F)F)(C2)C3)C1` (stereo partly drawn) [Example 29, 4-(4-((2-(3-(difluoromethyl)bicyclo[1.1.1]pentan-1-yl)-4,4-dimethylcyclohex-1-en-1-yl)methyl)piperazin-1-yl)-N-((4-(((2R)-4-(4-(5-(2-(2,6-dioxopiperidin-3-yl)-1-oxoisoindolin-4-yl)pent-4-yn-1-yl)piperazin-1-yl)-1-(phenylthio)butan-2-yl)amino)-3-((trifluoromethyl)sulfonyl)phenyl)sulfonyl)benzamide]: the pIC50 is at least 7.30.
The result for `CC1(C)CCC(CN2CCN(c3ccc(C(=O)NS(=O)(=O)c4ccc(N[C@H](CCN5CCN(CCCCCCNc6cccc7c6C(=O)N(C6CCC(=O)NC6=O)C7=O)CC5)CSc5ccccc5)c(S(=O)(=O)C(F)(F)F)c4)cc3)CC2)=C(C23CC(C(F)F)(C2)C3)C1` (stereo partly drawn) [Example 11, 4-[4-[[2-[3-(difluoromethyl)-1-bicyclo[1.1.1]pentanyl]-4,4-dimethyl-cyclohexen-1-yl]methyl]piperazin-1-yl]-N-[4-[[(1R)-3-[4-[6-[[2-(2,6-dioxo-3-piperidyl)-1,3-dioxo-isoindolin-4-yl]amino]hexyl]piperazin-1-yl]-1-(phenylsulfanylmethyl)propyl]amino]-3-(trifluoromethylsulfonyl)phenyl]sulfonyl-benzamide] reads at most 6.82; that for `CC1(C)CCC(CN2CCN(c3ccc(C(=O)NS(=O)(=O)c4ccc(N[C@H](CCN5CCN(CCCNc6ccc7c(c6)C(=O)N(C6CCC(=O)NC6=O)C7=O)CC5)CSc5ccccc5)c(S(=O)(=O)C(F)(F)F)c4)cc3)CC2)=C(C23CC(C(F)F)(C2)C3)C1` (stereo partly drawn) [Example 12, 4-[4-[[2-[3-(difluoromethyl)-1-bicyclo[1.1.1]pentanyl]-4,4-dimethyl-cyclohexen-1-yl]methyl]piperazin-1-yl]-N-[4-[[(1R)-3-[4-[3-[[2-(2,6-dioxo-3-piperidyl)-1,3-dioxo-isoindolin-5-yl]amino]propyl]piperazin-1-yl]-1-(phenylsulfanylmethyl)propyl]amino]-3-(trifluoromethylsulfonyl)phenyl]sulfonyl-benzamide], at least 7.30.
The result for `CC1(C)CCC(CN2CCN(c3ccc(C(=O)NS(=O)(=O)c4ccc(N[C@H](CCN5CCN(CCCCCc6cccc7c6C(=O)N(C6CCC(=O)NC6=O)C7=O)CC5)CSc5ccccc5)c(S(=O)(=O)C(F)(F)F)c4)cc3)CC2)=C(C23CC(C(F)F)(C2)C3)C1` (stereo partly drawn) [Example 22, 4-(4-((2-(3-(difluoromethyl)bicyclo[1.1.1]pentan-1-yl)-4,4-dimethylcyclohex-1-en-1-yl)methyl)piperazin-1-yl)-N-((4-(((2R)-4-(4-(5-(2-(2,6-dioxopiperidin-3-yl)-1,3-dioxoisoindolin-4-yl)pentyl)piperazin-1-yl)-1-(phenylthio)butan-2-yl)amino)-3-((trifluoromethyl)sulfonyl)phenyl)sulfonyl)benzamide] reads at most 6.82; that for `CC1(C)CCC(CN2CCN(c3ccc(C(=O)NS(=O)(=O)c4ccc(N[C@H](CCN5CCN(CCCCCNc6ccc7c(c6)C(=O)N(C6CCC(=O)NC6=O)C7=O)CC5)CSc5ccccc5)c(S(=O)(=O)C(F)(F)F)c4)cc3)CC2)=C(C23CC(C(F)F)(C2)C3)C1` (stereo partly drawn) [Example 4, 4-(4-((2-(3-(difluoromethyl)bicyclo[1.1.1]pentan-1-yl)-4,4-dimethylcyclohex-1-en-1-yl)methyl)piperazin-1-yl)-N-((4-(((2R)-4-(4-(5-((2-(2,6-dioxopiperidin-3-yl)-1,3-dioxoisoindolin-5-yl)amino)pentyl)piperazin-1-yl)-1-(phenylthio)butan-2-yl)amino)-3-((trifluoromethyl)sulfonyl)phenyl)sulfonyl)benzamide], 6.82 to 7.30.

The record behind these values is patent publication US20230167105A1, “BCL-2 PROTEIN INHIBITORS” (Recurium IP Holdings, LLC, priority 2020, published 2023).
